Measured values taken from patent US8232284B2, “Heteroaryloxy quinazoline derivative” (MSD K. K., priority 2007, dated 2012).
Counter-ions that a name gives are not always drawn. Like-named read-outs stand apart in the source and are kept apart here.

Key:
[1] = test system: male beagles; experiment: Pharmacological Test Example 2: drug efficacy test in dogs (plasma glucose level AUC); format: in vivo; conditions: for Percentage reduction (%) in plasma glucose level AUC: male beagles fasted overnight, oral 1 mg/kg in 0.5% methyl cellulose, compared to control group up to 4 hours after administration
Description: (§1) From the cephalic vein of male beagles fasted overnight (10.4-13.7 kg body weight), blood was collected prior to administration, followed by oral administration of the test drug suspended in a 0.5% methyl cellulose solution (1 mg/kg in both of the compounds of Example A and Example 18), while a 0.5% methyl cellulose solution was orally administered to the control group. The blood was collected every 0.5 or 1 hour after the administration of the test drug. Plasma was separated from the obtained blood to determine a plasma glucose level using Determina-GL-E (Kyowa Medics). Percentage reductions in plasma glucose level AUC compared to the control group up to 4 hours after the administration were described below.

[2] = test system: male beagles; experiment: Pharmacological Test Example 3: drug efficacy test in dogs (plasma glucose level AUC); format: in vivo; conditions: male beagles fasted overnight; oral 1 mg/kg in 0.5% methyl cellulose; compared to control group up to 4 hours after administration
Description: as §1, with “(8.5-13.7” for “(10.4-13.7”, “Examples 30” for “the compounds of Example A”, “31),” for “Example 18),”, “Medics).” for “Medics). Percentage reductions in plasma glucose level AUC compared to the control group up to 4 hours after the administration were described below.”
Percentage reductions in plasma glucose level AUC compared to the control group up to 4 hours after the administration were described below.

[3] = target: T1, recombinant human liver GK (Homo sapiens, UniProt P35557); experiment: Glucokinase-activating effect (Thio-NADH coupled assay with G6PDH, 2.5 mM glucose); format: biochemical; conditions: for Emax: OD level of DMSO control set as 100%
T1 construct: made in house; host or cells: E. coli
T1 sequence (P35557 1-466 isoform P35557-2): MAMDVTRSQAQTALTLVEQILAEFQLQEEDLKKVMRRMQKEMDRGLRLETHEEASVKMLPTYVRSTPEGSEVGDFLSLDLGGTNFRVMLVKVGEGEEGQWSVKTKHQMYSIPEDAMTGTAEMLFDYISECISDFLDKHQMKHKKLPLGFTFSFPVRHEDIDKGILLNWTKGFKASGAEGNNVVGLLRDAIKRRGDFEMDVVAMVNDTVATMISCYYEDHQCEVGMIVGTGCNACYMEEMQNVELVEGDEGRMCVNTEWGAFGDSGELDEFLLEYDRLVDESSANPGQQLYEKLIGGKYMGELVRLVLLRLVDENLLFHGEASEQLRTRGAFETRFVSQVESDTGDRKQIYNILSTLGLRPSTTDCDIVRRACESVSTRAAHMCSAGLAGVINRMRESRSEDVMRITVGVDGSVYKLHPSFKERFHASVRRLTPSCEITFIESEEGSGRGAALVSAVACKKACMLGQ
Text: The excellent glucokinase-activating effect of the compounds of the formula (I) may be determined by a method described in literature (for example, Diabetes, Vol. 45, pp. 1671-1677, 1996), or in accordance with it.
The glucokinase activity may be determined not by directly measuring glucose-6-phosphate but by measuring the level of Thio-NADH, which is produced when a reporter enzyme, glucose-6-phosphate dehydrogenase produces phosphogluconolactone from glucose-6-phosphate, and based on the level, the degree of glucokinase activation by the compound tested may be determined
In this assay, used was a recombinant human liver GK, which was expressed by E. coli as a FLAG fusion protein therein and was purified by ANTIFLAG M2 AFFINITY GEL (Sigma).
Using a flat-bottomed 96-well plate, the assay was carried out at 30° C. 69 μl of an assay buffer (25 mM Hepes Buffer/pH=7.2, 2 mM MgCl2, 1 mM ATP, 0.5 mM TNAD, 1 mM dithiothreitol) was put into the plate, and 1 μl of a DMSO solution of the compound or DMSO alone as a control was added thereto. Next, 20 μl of an enzyme mixture (FLAG-GK, 20 U/ml G6PDH) cooled in ice was added to it, and 10 μl of a substrate, 25 mM glucose was added to it, and the reaction was initiated (final glucose concentration=2.5 mM).
After the start of the reaction, the increase in the absorbance at 405 nm was measured for 12 minutes at intervals of 30 seconds, and the increase for the first 5 minutes was used for assessing the compound tested. FLAG-GK was added so that the absorbance increase after 5 minutes in the presence of 1% DMSO could be from 0.04 to 0.06.
The OD level of the DMSO control was set as 100%; and the OD level of the test compound at different concentrations was determined. From the OD level at each concentration, Emax (%) and EC50 (μM) were computed and used as the index of the GK-activating potency of the compound.
The comparative test was conducted to compare the compound of example 18, 31 and 32 in this invention with the compound (A) in the patent document 1. The test method in vitro was similar to pharmacological experiment 1 (glucokinase-activating effect).

[4] = comparative test in vitro, similar to pharmacological experiment 1, read-out: GK activity EC50
[5] = final glucose concentration 2.5 mM, 30° C., read-out: EC50
[6] = final glucose concentration 2.5 mM, 30° C.

| Compound | EC50 [3, 5] | further results |
| --- | --- | --- |
| Cc1cnc(Nc2ncnc3ccc(Oc4ncccc4Cl)cc23)cn1 [Compound A] | – | drug efficacy in the dogs ([1]; in vivo tests in dogs, summary statement): no drug efficacy; Percentage reduction (%) in plasma glucose level AUC [1]: −1%; Percentage reduction (%) in plasma glucose level AUC [2]: −1% |
| CCNCCOc1cnc(Oc2ccc3ncnc(Nc4ccn(C)n4)c3c2)c(Cl)c1.Cl [Example 18, 6-({3-chloro-5-[2-(ethylamino)ethoxy]pyridin-2-yl}oxy)-N-(1-methyl-1H-pyrazol-3-yl)quinazoline-4-amine hydrochloride] | – | EC50 [3, 4]: 30 nM; Percentage reduction (%) in plasma glucose level AUC [1]: 26% |
| Cc1cnc(Nc2ncnc3ccc(Oc4ccc(OCCN(C)C)cn4)cc23)cn1 [Example 31, 6-({5-[2-(dimethylamino)ethoxy]pyridin-2-yl}oxy)-N-(5-methylpyrazin-2-yl)quinazoline-4-amine] | – | EC50 [3, 4]: 440 nM; Percentage reduction (%) in plasma glucose level AUC [2]: 7.9% |
| CNCCOc1cnc(Oc2ccc3ncnc(Nc4cnc(C)cn4)c3c2)c(Cl)c1.Cl [Example 32, 6-({3-chloro-5-[2-(methylamino)ethoxy]pyridin-2-yl}oxy)-N-(5-methylpyrazin-2-yl)quinazoline-4-amine hydrochloride] | – | EC50 [3, 4]: 40 nM; Percentage reduction (%) in plasma glucose level AUC [2]: 17.5% |
| CN(C)CCOc1cnc(Oc2ccc3ncnc(Nc4cnccn4)c3c2)c(Cl)c1 [Example 44, 6-({3-chloro-5-[2-(dimethylamino)ethoxy]pyridin-2-yl}oxy)-N-pyrazin-2-ylquinazoline-4-amine] | 260 nM | – |
| Cc1nsc(Nc2ncnc3ccc(Oc4ccc(OCCN(C)C)cn4)cc23)n1 [Example 47, 6-({5-[2-(dimethylamino)ethoxy]pyridin-2-yl}oxy)-N-(3-methyl-1,2,4-thiadiazol-5-yl)quinazoline-4-amine] | 290 nM | – |
| Cn1ccc(Nc2ncnc3ccc(Oc4ncc(OCCO)cc4F)cc23)n1 [Example 54, 2-{[5-fluoro-6-({-4-[(1-methyl-1H-pyrazol-3-yl)amino]quinazolin-6-yl}oxy)pyridin-3-yl]oxy}ethanol] | 360 nM | – |
| Cc1cnc(Nc2ncnc3ccc(Oc4ncc(OCCCO)cc4Cl)cc23)cn1 [Example 61, 3-{[5-chloro-6-({4-[(5-methylpyrazin-2-yl)amino]quinazolin-6-yl}oxy)pyridin-3-yl]oxy}propan-1-ol] | 410 nM | Emax [3, 6]: 888% |
| CN(C)CCCN(C)S(=O)(=O)c1cnc(Oc2ccc3ncnc(Nc4ccn(C)n4)c3c2)c(Cl)c1 [Example 64, 5-chloro-N-[3-(dimethylamino)propyl]-N-methyl-6-({4-[(1-methyl-1H-pyrazol-3-yl)amino]quinazolin-6-yl}oxy)pyridine-3-sulfonamide] | 1140 nM | – |
| CN(C)CCN(C)C(=O)c1cnc(Oc2ccc3ncnc(Nc4ccn(C)n4)c3c2)c(Cl)c1 [Example 65, 5-chloro-N-[2-(dimethylamino)ethyl]-N-methyl-6-({4-[(1-methyl-1H-pyrazol-3-yl)amino]quinazolin-6-yl}oxy)nicotinamide] | 410 nM | – |
| CN(C)CCN(C)C(=O)c1ccnc(Oc2ccc3ncnc(Nc4ccn(C)n4)c3c2)c1Cl [Example 67, 3-chloro-N-[2-(dimethylamino)ethyl]-N-methyl-2-({4-[(1-methyl-1H-pyrazol-3-yl)amino]quinazolin-6-yl}oxy)isonicotinamide] | 6090 nM | Emax [3, 6]: 598% |

Now from value to compound, other results behind:

| EC50 [3, 5] | Compound | further results |
| --- | --- | --- |
| 110 nM | COc1ccc2nc(Nc3ncnc4ccc(Oc5ncc(OCCN(C)C)cc5Cl)cc34)sc2n1 [Example 46, 6-({3-chloro-5-[2-(dimethylamino)ethoxy]pyridin-2-yl}oxy)-N-(5-methoxy-[1,3]thiazolo[5,4-b]pyridin-2-yl)quinazoline-4-amine] | – |
| 200 nM | Cc1cnc(Nc2ncnc3ccc(Oc4ncc(OCCO)cc4Cl)cc23)cn1 [Example 58, 2-{[5-chloro-6-({4-[(5-methylpyrazin-2-yl)amino]-1quinazolin-6-yl}oxy)pyridin-3-yl]oxy}ethanol] | – |
| 26 nM | CNCCOc1cnc(Oc2ccc3ncnc(Nc4ccn(C)n4)c3c2)c(C)c1 [Example 70, N-methyl-2-{[5-methyl-6-({4-[(1-methyl-1H-pyrazol-3-yl)amino]quinazolin-6-yl}oxy)pyridin-3-yl]oxy}ethanamine hydrochloride] | Emax [3, 6]: 979% |
| 230 nM | CC(C)NCCOc1ccc(Oc2ccc3ncnc(Nc4cnn(C)n4)c3c2)nc1 [Example 76, N-(2-{[6-({4-[(2-methyl-2H-1,2,3-triazol-4-yl)amino]quinazolin-6-yl}oxy)pyridin-3-yl]oxy}ethyl)propan-2-amine hydrochloride] | – |
| 13 nM | Cc1cc(OCCNC(C)C)cnc1Oc1ccc2ncnc(Nc3cnn(C)n3)c2c1 [Example 81, N-(2-{[5-methyl-6-({4-[(2-methyl-2H-1,2,3-triazol-4-yl)amino]quinazolin-6-yl}oxy)pyridin-3-yl]oxy}ethyl)propan-2-amine hydrochloride] | – |
| 40 nM | Cc1cc(OCCO)cnc1Oc1ccc2ncnc(Nc3cnn(C)n3)c2c1 [Example 84, 2-{[5-methyl-6-({4-[(2-methyl-2H-1,2,3-triazol-4-yl)amino]quinazolin-6-yl}oxy)pyridin-3-yl]oxy}ethanol] | – |
